Reference: the supplement of paper PMC10307832

Assays:
Experiment in all cases: relative viability (nuclei count vs DMSO), 5 days (fraction); higher = more cells survive
LCLC-103H = test system: LCLC-103H
Procedure, shortened: (§1)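 Relative viability was taken as the ratio of nuclei in treated wells to nuclei in vehicle wells. Lung cancer cell lines in 1536-well plates received compounds by pin tool one day after seeding, either one drug alone or a fixed anchor-drug dose plus five library-drug doses (not always all listed) in √10 steps. Nuclei were counted on 4× images after 5 days of treatment, and values are medians of duplicate plates.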

LXF-289 = test system: LXF-289
Procedure, shortened: as §1

NCI-H1355 = test system: NCI-H1355
Procedure, shortened: as §1

NCI-H1651 = test system: NCI-H1651
Procedure, shortened: as §1

NCI-H1755 = test system: NCI-H1755
Procedure, shortened: as §1

NCI-H1915 = test system: NCI-H1915
Procedure, shortened: as §1

NCI-H2170 = test system: NCI-H2170
Procedure, shortened: as §1

NCI-H2347 = test system: NCI-H2347
Procedure, shortened: as §1

NCI-H3122 = test system: NCI-H3122
Procedure, shortened: as §1

NCI-H322M = test system: NCI-H322M
Procedure, shortened: as §1

NCI-H441 = test system: NCI-H441
Procedure, shortened: as §1

NCI-H460 = test system: NCI-H460
Procedure, shortened: as §1

NCI-H520 = test system: NCI-H520
Procedure, shortened: as §1

NCI-H596 = test system: NCI-H596
Procedure, shortened: as §1

NCI-H650 = test system: NCI-H650
Procedure, shortened: as §1

NCI-H661 = test system: NCI-H661
Procedure, shortened: as §1

NCI-H727 = test system: NCI-H727
Procedure, shortened: as §1

PC-14 = test system: PC-14
Procedure, shortened: as §1

RERF-LC-KJ = test system: RERF-LC-KJ
Procedure, shortened: as §1

SK-MES-1 = test system: SK-MES-1
Procedure, shortened: as §1

SW 900 = test system: SW 900
Procedure, shortened: as §1

Q: How did the relative viability (LCLC-103H; first compound 0.01 µM) turn out when `NC(=O)Nc1cc(-c2cccc(F)c2)sc1C(=O)N[C@H]1CCCNC1` [AZD7762] + O=C(CCCCCCC(=O)Nc1ccccc1)NO [Vorinostat] (partner 1 µM) was run?
A: 0.857

Q: And the relative viability (LCLC-103H; first compound 0.03162 µM)?
A: 0.776

Q: What about the relative viability (LCLC-103H; first compound 0.1 µM) of the same molecule?
A: 0.842

Q: And the relative viability (LCLC-103H; first compound 0.3162 µM)?
A: 0.591

Q: And the relative viability (LCLC-103H; first compound 1 µM)?
A: 0.69

Q: What about the relative viability (LXF-289; first compound 0.01 µM) of the same molecule?
A: 0.67

Q: What about the relative viability (LXF-289; first compound 0.03162 µM) of the same molecule?
A: 0.802

Q: What about the relative viability (LXF-289; first compound 0.1 µM) of the same molecule?
A: 0.77

Q: What about the relative viability (LXF-289; first compound 0.3162 µM) of the same molecule?
A: 0.78

Q: What about the relative viability (LXF-289; first compound 1 µM) of the same molecule?
A: 0.83

Q: What about the relative viability (NCI-H1355; first compound 0.01 µM) of the same molecule?
A: 0.609

Q: And the relative viability (NCI-H1355; first compound 0.03162 µM)?
A: 0.629

Q: What about the relative viability (NCI-H1355; first compound 0.1 µM) of the same molecule?
A: 0.649

Q: What about the relative viability (NCI-H1355; first compound 0.3162 µM) of the same molecule?
A: 0.647

Q: And the relative viability (NCI-H1355; first compound 1 µM)?
A: 0.379

Q: What about the relative viability (NCI-H1651; first compound 0.01 µM) of the same molecule?
A: 0.569

Q: And the relative viability (NCI-H1651; first compound 0.03162 µM)?
A: 0.727

Q: And the relative viability (NCI-H1651; first compound 0.1 µM)?
A: 0.587

Q: What about the relative viability (NCI-H1651; first compound 0.3162 µM) of the same molecule?
A: 0.533

Q: And the relative viability (NCI-H1651; first compound 1 µM)?
A: 0.272

Q: And the relative viability (NCI-H1755; first compound 0.01 µM)?
A: 0.804

Q: And the relative viability (NCI-H1755; first compound 0.03162 µM)?
A: 0.723

Q: And the relative viability (NCI-H1755; first compound 0.1 µM)?
A: 0.72

Q: What about the relative viability (NCI-H1755; first compound 0.3162 µM) of the same molecule?
A: 0.663

Q: What about the relative viability (NCI-H1755; first compound 1 µM) of the same molecule?
A: 0.423

Q: And the relative viability (NCI-H1915; first compound 0.01 µM)?
A: 0.567

Q: What about the relative viability (NCI-H1915; first compound 0.03162 µM) of the same molecule?
A: 0.526

Q: What about the relative viability (NCI-H1915; first compound 0.1 µM) of the same molecule?
A: 0.462

Q: And the relative viability (NCI-H1915; first compound 0.3162 µM)?
A: 0.474

Q: And the relative viability (NCI-H1915; first compound 1 µM)?
A: 0.373

Q: What about the relative viability (NCI-H2170; first compound 0.01 µM) of the same molecule?
A: 0.81

Q: What about the relative viability (NCI-H2170; first compound 0.03162 µM) of the same molecule?
A: 0.834

Q: What about the relative viability (NCI-H2170; first compound 0.1 µM) of the same molecule?
A: 0.766

Q: What about the relative viability (NCI-H2170; first compound 0.3162 µM) of the same molecule?
A: 0.772

Q: What about the relative viability (NCI-H2170; first compound 1 µM) of the same molecule?
A: 0.824

Q: What about the relative viability (NCI-H2347; first compound 0.01 µM) of the same molecule?
A: 0.554

Q: And the relative viability (NCI-H2347; first compound 0.03162 µM)?
A: 0.711

Q: What about the relative viability (NCI-H2347; first compound 0.1 µM) of the same molecule?
A: 0.557

Q: What about the relative viability (NCI-H2347; first compound 0.3162 µM) of the same molecule?
A: 0.637

Q: What about the relative viability (NCI-H2347; first compound 1 µM) of the same molecule?
A: 0.547

Q: And the relative viability (NCI-H3122; first compound 0.01 µM)?
A: 0.936

Q: What about the relative viability (NCI-H3122; first compound 0.03162 µM) of the same molecule?
A: 0.927

Q: And the relative viability (NCI-H3122; first compound 0.1 µM)?
A: 1.06

Q: And the relative viability (NCI-H3122; first compound 0.3162 µM)?
A: 0.925

Q: What about the relative viability (NCI-H3122; first compound 1 µM) of the same molecule?
A: 0.973

Q: What about the relative viability (NCI-H322M; first compound 0.01 µM) of the same molecule?
A: 0.822

Q: What about the relative viability (NCI-H322M; first compound 0.03162 µM) of the same molecule?
A: 0.967

Q: And the relative viability (NCI-H322M; first compound 0.1 µM)?
A: 0.935

Q: What about the relative viability (NCI-H322M; first compound 0.3162 µM) of the same molecule?
A: 0.792

Q: What about the relative viability (NCI-H322M; first compound 1 µM) of the same molecule?
A: 0.478

Q: What about the relative viability (NCI-H441; first compound 0.01 µM) of the same molecule?
A: 1.09

Q: And the relative viability (NCI-H441; first compound 0.03162 µM)?
A: 0.804

Q: And the relative viability (NCI-H441; first compound 0.1 µM)?
A: 1.01

Q: What about the relative viability (NCI-H441; first compound 0.3162 µM) of the same molecule?
A: 0.864

Q: And the relative viability (NCI-H441; first compound 1 µM)?
A: 0.312

Q: What about the relative viability (NCI-H460; first compound 0.01 µM) of the same molecule?
A: 0.885

Q: What about the relative viability (NCI-H460; first compound 0.03162 µM) of the same molecule?
A: 0.63

Q: And the relative viability (NCI-H460; first compound 0.1 µM)?
A: 0.684

Q: What about the relative viability (NCI-H460; first compound 0.3162 µM) of the same molecule?
A: 0.216

Q: And the relative viability (NCI-H460; first compound 1 µM)?
A: 0.0532

Q: And the relative viability (NCI-H520; first compound 0.01 µM)?
A: 0.78

Q: What about the relative viability (NCI-H520; first compound 0.03162 µM) of the same molecule?
A: 0.825

Q: What about the relative viability (NCI-H520; first compound 0.1 µM) of the same molecule?
A: 0.635

Q: And the relative viability (NCI-H520; first compound 0.3162 µM)?
A: 0.375

Q: What about the relative viability (NCI-H520; first compound 1 µM) of the same molecule?
A: 0.187

Q: And the relative viability (NCI-H596; first compound 0.01 µM)?
A: 0.691

Q: What about the relative viability (NCI-H596; first compound 0.03162 µM) of the same molecule?
A: 0.803

Q: And the relative viability (NCI-H596; first compound 0.1 µM)?
A: 0.716

Q: What about the relative viability (NCI-H596; first compound 0.3162 µM) of the same molecule?
A: 0.593

Q: What about the relative viability (NCI-H596; first compound 1 µM) of the same molecule?
A: 0.594

Q: And the relative viability (NCI-H650; first compound 0.01 µM)?
A: 0.435

Q: And the relative viability (NCI-H650; first compound 0.03162 µM)?
A: 0.404

Q: What about the relative viability (NCI-H650; first compound 0.1 µM) of the same molecule?
A: 0.411

Q: What about the relative viability (NCI-H650; first compound 0.3162 µM) of the same molecule?
A: 0.399

Q: And the relative viability (NCI-H650; first compound 1 µM)?
A: 0.334

Q: What about the relative viability (NCI-H661; first compound 0.01 µM) of the same molecule?
A: 0.929

Q: And the relative viability (NCI-H661; first compound 0.03162 µM)?
A: 0.867

Q: What about the relative viability (NCI-H661; first compound 0.1 µM) of the same molecule?
A: 0.98

Q: What about the relative viability (NCI-H661; first compound 0.3162 µM) of the same molecule?
A: 0.604

Q: What about the relative viability (NCI-H661; first compound 1 µM) of the same molecule?
A: 0.341

Q: What about the relative viability (NCI-H727; first compound 0.01 µM) of the same molecule?
A: 1.18

Q: What about the relative viability (NCI-H727; first compound 0.03162 µM) of the same molecule?
A: 1.26

Q: What about the relative viability (NCI-H727; first compound 0.1 µM) of the same molecule?
A: 1.2

Q: What about the relative viability (NCI-H727; first compound 0.3162 µM) of the same molecule?
A: 1.24

Q: And the relative viability (NCI-H727; first compound 1 µM)?
A: 0.868

Q: And the relative viability (PC-14; first compound 0.01 µM)?
A: 0.761

Q: What about the relative viability (PC-14; first compound 0.03162 µM) of the same molecule?
A: 0.591

Q: What about the relative viability (PC-14; first compound 0.1 µM) of the same molecule?
A: 0.57

Q: What about the relative viability (PC-14; first compound 0.3162 µM) of the same molecule?
A: 0.292

Q: What about the relative viability (PC-14; first compound 1 µM) of the same molecule?
A: 0.0419

Q: And the relative viability (RERF-LC-KJ; first compound 0.01 µM)?
A: 0.749

Q: And the relative viability (RERF-LC-KJ; first compound 0.03162 µM)?
A: 0.695

Q: And the relative viability (RERF-LC-KJ; first compound 0.1 µM)?
A: 0.711

Q: What about the relative viability (RERF-LC-KJ; first compound 0.3162 µM) of the same molecule?
A: 0.722

Q: What about the relative viability (RERF-LC-KJ; first compound 1 µM) of the same molecule?
A: 0.601

Q: What about the relative viability (SK-MES-1; first compound 0.01 µM) of the same molecule?
A: 1.12

Q: And the relative viability (SK-MES-1; first compound 0.03162 µM)?
A: 1.01

Q: What about the relative viability (SK-MES-1; first compound 0.1 µM) of the same molecule?
A: 0.841

Q: And the relative viability (SK-MES-1; first compound 0.3162 µM)?
A: 0.45

Q: And the relative viability (SK-MES-1; first compound 1 µM)?
A: 0.192

Q: What about the relative viability (SW 900; first compound 0.01 µM) of the same molecule?
A: 0.643

Q: What about the relative viability (SW 900; first compound 0.03162 µM) of the same molecule?
A: 0.445

Q: And the relative viability (SW 900; first compound 0.1 µM)?
A: 0.545

Q: And the relative viability (SW 900; first compound 0.3162 µM)?
A: 0.262

Q: What about the relative viability (SW 900; first compound 1 µM) of the same molecule?
A: 0.275
